First: CCn1ncc2cc3c(nc21)C(O)c1ccccc1CC3 (stereo not given)
Second: CCN1C(=O)C(C(=O)c2cccs2)c2cc(Cl)cnc21 (stereo not given)
The melting point of the first is higher: 130 to 132 °C for the first, 111 to 112 °C for the second.

First: Cc1cc(-c2ccc(S(C)(=O)=O)cc2)n(-c2ccc(F)cc2)c1C
Second: Cc1ccc(C2=Cc3cc(C)c(C)cc3C2)cc1
The melting point of the first is lower: 159 to 162 °C for the first, 227 to 228 °C for the second.

Compared with `CC(C)n1c(=O)n(C)c(=O)c2cn(C3Cc4ccccc4C3)cc21`, `CCOC(=O)N1CCN(CC2CSC3=C(O2)c2ccccc2C(=O)C3=O)CC1` (stereo not given) is higher in melting point: 158 to 160 °C for the first, 185 to 187 °C for the second.

First: CC(NC(Nc1cc(C(F)(F)F)cc(C(F)(F)F)c1)=C(C#N)S(=O)(=O)c1ccc(Cl)cc1)C(C)(C)C (stereo not given)
Second: C=C(c1cn(-c2c(Cl)cc(C(F)(F)F)cc2Cl)nc1C#N)C(F)(F)C(F)(F)F
The melting point of the first is higher: 156 to 158 °C for the first, 107 to 108 °C for the second.

First: N#Cc1ccc(N=C=O)cc1Cl
Second: CCOC(=O)CC(=O)c1ccc(F)c(Cl)c1
The melting point of the first is higher: 198 to 201 °C for the first, 39 to 40 °C for the second.

Compared with `CCCCC(CC)CNCCCOc1ccc2ccccc2c1` (stereo not given), `CCCCOc1ccc(OCc2ccccc2)c(C(=O)O)c1` is lower in melting point: 97 °C for the first, 79 to 82 °C for the second.

First: NC1=C(NC=O)C(=O)N2CCN=C2N1
Second: NC(=O)C(=O)c1c2n(c3ccccc13)CCNCC2
The melting point of the first is higher: 268 °C for the first, 214 to 215 °C for the second.

Compared with `CCCCCCCCOc1ccc(-c2ncc(Br)cn2)c(F)c1F`, `CCCCCCNC(=O)c1cnc2cccc(C)n2c1=O` is higher in melting point: 74.6 °C for the first, 116 to 118 °C for the second.

First: O=C1[C@H]2CCC[C@H]2Nc2ccc(Cl)cc2N1Cc1ccccc1 (relative stereo)
Second: O=Cc1cc(-c2ccccc2)nn1Cc1ccc(Cl)cc1Cl
The melting point of the first is higher: 160 to 163 °C for the first, 135 to 137 °C for the second.

First: CCCCOC(=O)c1cccc2c1-c1ccccc1C2=C(C#N)C#N
Second: COc1ccccc1C(c1cccc2ccccc12)C(C)(C#N)C#N (stereo not given)
The melting point of the first is lower: 99 to 100 °C for the first, 175 to 177 °C for the second.

First: CC(=C1SC(=O)NC1=O)c1ccc(OCCOc2c(-c3ccc(F)c(F)c3)n(C)c3ccccc3c2=O)c(F)c1
Second: O=C1CC(c2cccc(-n3ccnc3)c2)=Nc2ccc(C#Cc3ccccc3F)cc2N1
The melting point of the first is higher: 204 to 206 °C for the first, 201 to 203 °C for the second.

First: CNC(=O)N(C)C1=NN(C(C)=O)C(C)(C)S1
Second: CCCC[C@H](C)CC(=O)N[C@H](CCC(=O)N[C@@H](C)C(=O)N[C@H](C)C(=O)O)C(=O)O
The melting point of the first is lower: 151 to 154 °C for the first, 165 to 168 °C for the second.

First: CC(COc1c(-c2ccccc2)c(=O)oc2c(-c3ccccc3)cccc12)CN1CCOCC1 (stereo not given)
Second: Cc1c(C(=O)O)ccc2c1OC(c1ccccc1)(c1ccccc1)O2
The melting point of the first is lower: 120 to 121 °C for the first, 263 to 265 °C for the second.

First: COc1cc(OC)cc(N2CCN(C(=O)N(C)c3cc(C)c(C)cc3OC)CC2)c1
Second: COc1ccc(C2=NN(c3ccc(C4=NNC(=O)CC4C)cc3)C(=O)C3CC=CCC23)cc1OC (stereo not given)
The melting point of the first is lower: 86 to 88 °C for the first, 192 to 194 °C for the second.

Compared with `Cn1ncc2c1-c1c(S(C)(=O)=O)sc(S(N)(=O)=O)c1CC2`, `Cc1ccc(S(=O)(=O)N2CCn3c(c(C(N)=O)c(Cl)c3-c3ccccc3)C2)cc1` is lower in melting point: 228 to 229 °C for the first, 188 to 190 °C for the second.

Compared with `CN1CCN(CC2COCc3nc4c(N)nc5ccccc5c4n32)CC1` (stereo not given), `CC(=O)OCCOCCN1CCC(CNC(=O)[C@@H]2CCCN2S(=O)(=O)c2ccc(Cl)c(COc3cccc4c(-n5cncn5)cc(C)nc34)c2Cl)CC1` is lower in melting point: 187 to 190 °C for the first, 86 °C for the second.

First: O=C(O)/C=C/C=C/C=C/C1=Cc2ccccc2OC1
Second: O=C(O)c1ccccc1NC(=O)c1ncoc1-c1ccc(C(F)(F)F)cc1
The melting point of the first is lower: 206 to 208 °C for the first, 231 to 232 °C for the second.

First: OCC(CO)Oc1ccc(Cl)cc1
Second: O=C1NCC=NN1c1ccc(Cc2ccc(Cl)cc2)c(Cl)c1
The melting point of the first is lower: 62 to 64 °C for the first, 196 to 197 °C for the second.

First: NC(=O)C1(Nc2ccccc2)CCN(C2CCC(c3ccc(F)cc3)(c3ccc(F)cc3)CC2)CC1
Second: CN(C)c1ccc(C(=O)N(CCN2CCC(C(=O)c3ccc(F)cc3)CC2)c2cccnc2)cc1
The melting point of the first is higher: 224 to 227 °C for the first, 147 to 152 °C for the second.

Compared with `O=S1(=O)CCN2C=CC=C(c3ccc(Oc4ccc(C(F)(F)F)cc4)cc3)C2=N1`, `C(=C\c1cc(/C=C/c2ccc3cc[nH]c3c2)n[nH]1)/c1ccc(OCc2ccccn2)cc1` is lower in melting point: 253 to 255 °C for the first, 211 to 214 °C for the second.

First: CS(=O)c1ccc(CCCCCCCCCCC(Cl)(Cl)C(=O)O)cc1 (stereo not given)
Second: CC(=O)Nc1cc(F)ccc1O
The melting point of the first is lower: 75 to 76 °C for the first, 185 to 186 °C for the second.

Compared with `Cn1nc(-c2ncc(Cl)cc2F)c(I)c1OC(F)F`, `Cc1nn(CCO)c(C)c1Oc1cc(Cl)cc(Cl)c1` is higher in melting point: 77 to 78 °C for the first, 114 to 115 °C for the second.

First: COC(=O)CN(C)C(=S)c1cccc2c(SC(F)(F)F)c(OC)ccc12
Second: CCOC(=O)C(C)(C)Oc1ccc(C#N)cc1C
The melting point of the first is higher: 121 to 123 °C for the first, 46 °C for the second.

First: NC(=O)c1sc2ccc(Br)cc2c1-c1ccccc1
Second: O=c1[nH]c2cc(Cl)ccc2c(O)c1-n1cccn1
The melting point of the first is lower: 201 to 202 °C for the first, 310 °C for the second.

First: CC(N)=CC(=O)NCCN1CCOCC1
Second: CS(=O)(=O)O[C@@H]([C@H](OS(C)(=O)=O)[C@H](Cc1ccccc1)NC(=O)OCc1ccccc1)[C@H](Cc1ccccc1)NC(=O)OCc1ccccc1
The melting point of the first is lower: 86 to 93 °C for the first, 153 to 155 °C for the second.

From a melting point compilation (Tetko et al.; mined from patent text by program, amines drawn as free bases though some values may be those of a salt)
